# Experiments:
# [1] = system: Liver; assay: Intrinsic clearance in rat liver hepatocytes; format: ADME, cell-based, Hepatocyte
# [2] = Volume of distribution at steady state in Sprague-Dawley rat at 1 mg/kg, iv and 2 mg/kg, po; format: ADME, organism-based; conditions: in vivo, read-out: Vdss
# [3] = Clearance in Sprague-Dawley rat at 1 mg/kg, iv and 2 mg/kg, po; format: ADME, organism-based; conditions: in vivo
# [4] = molecular target: T1, Serine/threonine-protein kinase mTOR (Homo sapiens, UniProt P42345)
# [5] = Oral bioavailability in Sprague-Dawley rat at 2 mg/kg; format: ADME, organism-based; conditions: in vivo
# [6] = Intrinsic clearance in rat liver microsomes; format: ADME, Microsome
# [7] = molecular target: T2, Phosphatidylinositol 4,5-bisphosphate 3-kinase catalytic subunit delta isoform (Homo sapiens, UniProt O00329)
# T2 sequence (O00329 whole entry): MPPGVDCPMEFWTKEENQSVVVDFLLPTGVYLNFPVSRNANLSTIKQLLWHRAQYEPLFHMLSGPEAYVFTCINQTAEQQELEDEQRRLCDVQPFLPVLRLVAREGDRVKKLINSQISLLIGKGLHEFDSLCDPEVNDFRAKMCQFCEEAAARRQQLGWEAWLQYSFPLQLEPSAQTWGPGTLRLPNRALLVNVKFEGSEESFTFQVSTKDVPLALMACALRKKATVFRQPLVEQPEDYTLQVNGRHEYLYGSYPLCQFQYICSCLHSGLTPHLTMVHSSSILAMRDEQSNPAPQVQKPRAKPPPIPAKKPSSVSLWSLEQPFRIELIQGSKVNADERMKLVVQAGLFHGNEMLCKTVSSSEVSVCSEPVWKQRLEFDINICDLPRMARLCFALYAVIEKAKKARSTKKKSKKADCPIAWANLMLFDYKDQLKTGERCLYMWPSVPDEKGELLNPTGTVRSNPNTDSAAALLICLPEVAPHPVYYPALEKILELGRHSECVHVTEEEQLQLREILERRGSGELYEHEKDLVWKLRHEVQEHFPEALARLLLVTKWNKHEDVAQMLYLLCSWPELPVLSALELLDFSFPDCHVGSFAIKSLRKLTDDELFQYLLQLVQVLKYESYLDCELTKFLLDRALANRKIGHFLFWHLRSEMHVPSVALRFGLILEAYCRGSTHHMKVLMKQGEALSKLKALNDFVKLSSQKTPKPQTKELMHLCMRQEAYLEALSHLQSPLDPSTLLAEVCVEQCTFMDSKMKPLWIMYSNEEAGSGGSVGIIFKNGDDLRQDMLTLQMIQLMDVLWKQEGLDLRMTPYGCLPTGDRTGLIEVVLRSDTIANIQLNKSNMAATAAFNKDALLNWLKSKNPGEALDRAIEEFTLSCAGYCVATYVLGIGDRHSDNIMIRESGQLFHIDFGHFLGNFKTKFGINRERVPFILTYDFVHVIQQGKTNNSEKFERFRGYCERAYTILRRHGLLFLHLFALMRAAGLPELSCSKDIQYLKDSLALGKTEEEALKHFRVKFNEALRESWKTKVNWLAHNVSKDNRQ
# [8] = Solubility of compound in 0.01 N HCL; format: physicochemical
# [9] = molecular target: Phosphatidylinositol 4,5-bisphosphate 3-kinase catalytic subunit beta isoform (Homo sapiens, UniProt P42338)
# Phosphatidylinositol 4,5-bisphosphate 3-kinase catalytic subunit beta isoform, sequence (P42338 whole entry, canonical isoform): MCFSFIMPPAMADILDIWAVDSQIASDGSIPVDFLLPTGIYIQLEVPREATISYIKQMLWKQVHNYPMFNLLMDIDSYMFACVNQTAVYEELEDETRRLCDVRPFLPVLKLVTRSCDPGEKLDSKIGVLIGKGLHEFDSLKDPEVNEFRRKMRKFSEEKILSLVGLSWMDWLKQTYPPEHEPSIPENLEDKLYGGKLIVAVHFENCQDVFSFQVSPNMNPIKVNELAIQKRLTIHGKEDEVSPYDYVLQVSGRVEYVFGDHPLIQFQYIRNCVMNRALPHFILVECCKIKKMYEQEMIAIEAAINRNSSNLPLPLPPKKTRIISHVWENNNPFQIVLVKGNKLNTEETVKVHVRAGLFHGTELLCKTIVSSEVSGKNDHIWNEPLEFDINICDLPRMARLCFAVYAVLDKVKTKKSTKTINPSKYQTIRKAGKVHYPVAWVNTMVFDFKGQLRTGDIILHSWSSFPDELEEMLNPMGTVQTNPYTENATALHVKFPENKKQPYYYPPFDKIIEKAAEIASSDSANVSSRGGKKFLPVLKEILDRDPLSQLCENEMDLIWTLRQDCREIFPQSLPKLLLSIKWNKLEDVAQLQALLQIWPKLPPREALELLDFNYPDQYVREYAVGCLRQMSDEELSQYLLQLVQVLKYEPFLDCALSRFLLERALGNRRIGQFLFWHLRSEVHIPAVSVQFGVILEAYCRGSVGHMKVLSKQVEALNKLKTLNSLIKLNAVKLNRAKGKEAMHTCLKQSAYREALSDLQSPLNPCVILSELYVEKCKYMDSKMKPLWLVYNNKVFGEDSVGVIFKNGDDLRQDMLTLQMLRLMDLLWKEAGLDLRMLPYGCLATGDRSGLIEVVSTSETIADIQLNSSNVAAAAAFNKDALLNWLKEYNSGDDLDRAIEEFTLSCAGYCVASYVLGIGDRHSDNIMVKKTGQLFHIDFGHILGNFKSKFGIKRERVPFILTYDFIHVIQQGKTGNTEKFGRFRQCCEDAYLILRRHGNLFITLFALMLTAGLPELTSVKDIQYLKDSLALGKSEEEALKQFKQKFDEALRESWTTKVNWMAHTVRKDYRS
# [10] = molecular target: Phosphatidylinositol 4,5-bisphosphate 3-kinase catalytic subunit alpha isoform (Homo sapiens, UniProt P42336)
# Phosphatidylinositol 4,5-bisphosphate 3-kinase catalytic subunit alpha isoform, sequence (P42336 whole entry, canonical isoform): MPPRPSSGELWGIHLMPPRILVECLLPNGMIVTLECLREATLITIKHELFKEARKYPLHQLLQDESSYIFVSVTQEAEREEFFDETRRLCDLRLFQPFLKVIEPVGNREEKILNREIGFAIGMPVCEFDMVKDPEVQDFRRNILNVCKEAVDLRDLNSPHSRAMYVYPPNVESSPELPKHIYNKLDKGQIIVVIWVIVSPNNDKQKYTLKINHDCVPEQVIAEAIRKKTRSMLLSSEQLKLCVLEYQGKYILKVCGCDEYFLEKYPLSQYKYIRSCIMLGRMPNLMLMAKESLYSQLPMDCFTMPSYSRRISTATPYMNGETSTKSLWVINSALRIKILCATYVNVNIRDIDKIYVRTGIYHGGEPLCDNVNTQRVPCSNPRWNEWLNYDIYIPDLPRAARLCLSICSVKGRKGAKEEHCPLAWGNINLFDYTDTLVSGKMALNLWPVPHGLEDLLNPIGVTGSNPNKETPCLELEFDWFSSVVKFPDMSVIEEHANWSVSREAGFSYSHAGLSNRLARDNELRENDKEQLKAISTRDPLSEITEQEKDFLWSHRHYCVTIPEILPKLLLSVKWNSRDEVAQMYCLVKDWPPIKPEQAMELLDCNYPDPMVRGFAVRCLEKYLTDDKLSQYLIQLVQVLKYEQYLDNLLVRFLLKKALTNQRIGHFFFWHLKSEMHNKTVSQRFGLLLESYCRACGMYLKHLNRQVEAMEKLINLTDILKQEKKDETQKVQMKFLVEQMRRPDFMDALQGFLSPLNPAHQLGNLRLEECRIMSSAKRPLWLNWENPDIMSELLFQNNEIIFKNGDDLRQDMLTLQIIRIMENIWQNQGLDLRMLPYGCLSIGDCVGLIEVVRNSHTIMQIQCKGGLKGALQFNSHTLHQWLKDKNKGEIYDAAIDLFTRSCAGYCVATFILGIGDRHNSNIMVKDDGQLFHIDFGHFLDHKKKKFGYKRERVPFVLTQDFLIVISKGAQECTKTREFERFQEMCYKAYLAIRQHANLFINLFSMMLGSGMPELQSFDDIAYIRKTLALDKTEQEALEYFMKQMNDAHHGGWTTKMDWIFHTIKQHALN
# [11] = Intrinsic clearance in human liver microsomes; format: ADME, Microsome
# [12] = Half life in Sprague-Dawley rat at 1 mg/kg, iv; format: ADME, organism-based; design: dose 1 mg/kg, route intravenous; conditions: in vivo
# [13] = molecular target: T1, Serine/threonine-protein kinase mTOR; remark: listed apart in the source
# Description: Inhibition of mTOR in human U-87 cells assessed as inhibition of phosphorylation of AKT at S473
# [14] = molecular target: T1, Serine/threonine-protein kinase mTOR; remark: listed apart in the source
# [15] = system: Rattus norvegicus; assay: In vivo clearance in bile-duct cannulated rat assessed as multiple glucuronidation metabolites in bile by LC/MS analysis; format: ADME, organism-based
# [16] = system: Rattus norvegicus; assay: AUC in Sprague-Dawley rat at 1 mg/kg, iv; format: ADME, organism-based, Plasma; design: dose 1 mg/kg, route intravenous; conditions: in vivo
# [17] = Plasma protein binding in Sprague-Dawley rat at 1 mg/kg, iv and 2 mg/kg, po; format: ADME, organism-based; conditions: read-out: PPB (converted)
# [18] = Volume of distribution at steady state in Sprague-Dawley rat at 0.5 mg/kg, iv; format: ADME, organism-based; design: dose 0.5 mg/kg, route intravenous; conditions: in vivo, read-out: Vdss
# [19] = system: Rattus norvegicus; assay: AUC in Sprague-Dawley rat at 0.5 mg/kg, iv; format: ADME, organism-based, Plasma; design: dose 0.5 mg/kg, route intravenous; conditions: in vivo
# [20] = molecular target: Phosphatidylinositol 4,5-bisphosphate 3-kinase catalytic subunit gamma isoform (Homo sapiens, UniProt P48736)
# Phosphatidylinositol 4,5-bisphosphate 3-kinase catalytic subunit gamma isoform, sequence (P48736 whole entry, canonical isoform): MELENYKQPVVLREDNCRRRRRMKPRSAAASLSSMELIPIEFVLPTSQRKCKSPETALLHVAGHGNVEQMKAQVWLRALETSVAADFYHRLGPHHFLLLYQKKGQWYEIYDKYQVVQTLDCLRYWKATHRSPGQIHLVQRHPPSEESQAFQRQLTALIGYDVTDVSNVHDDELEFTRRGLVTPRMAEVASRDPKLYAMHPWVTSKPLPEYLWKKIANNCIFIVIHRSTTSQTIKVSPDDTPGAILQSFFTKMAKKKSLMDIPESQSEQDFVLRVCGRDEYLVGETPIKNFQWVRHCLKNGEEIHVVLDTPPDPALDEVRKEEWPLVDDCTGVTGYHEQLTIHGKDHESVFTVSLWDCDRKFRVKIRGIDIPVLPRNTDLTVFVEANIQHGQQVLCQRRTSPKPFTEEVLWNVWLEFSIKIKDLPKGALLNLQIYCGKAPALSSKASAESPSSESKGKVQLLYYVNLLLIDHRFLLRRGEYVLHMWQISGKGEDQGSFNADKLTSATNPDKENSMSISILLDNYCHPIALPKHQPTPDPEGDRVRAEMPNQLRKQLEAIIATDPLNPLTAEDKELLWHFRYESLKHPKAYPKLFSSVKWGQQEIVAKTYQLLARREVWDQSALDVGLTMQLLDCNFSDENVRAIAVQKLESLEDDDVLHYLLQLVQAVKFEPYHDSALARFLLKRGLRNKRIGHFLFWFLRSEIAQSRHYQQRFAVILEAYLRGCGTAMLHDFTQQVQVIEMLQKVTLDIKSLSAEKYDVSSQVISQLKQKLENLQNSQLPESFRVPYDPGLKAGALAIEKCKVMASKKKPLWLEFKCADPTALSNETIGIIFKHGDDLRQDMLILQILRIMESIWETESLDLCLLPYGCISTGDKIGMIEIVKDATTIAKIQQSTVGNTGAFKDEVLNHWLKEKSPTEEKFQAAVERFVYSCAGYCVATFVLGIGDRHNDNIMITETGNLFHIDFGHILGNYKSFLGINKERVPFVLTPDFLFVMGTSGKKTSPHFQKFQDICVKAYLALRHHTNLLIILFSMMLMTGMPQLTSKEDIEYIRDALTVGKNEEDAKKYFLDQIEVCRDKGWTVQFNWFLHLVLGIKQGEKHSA
# [21] = Half life in Sprague-Dawley rat at 0.5 mg/kg, iv; format: ADME, organism-based; design: dose 0.5 mg/kg, route intravenous; conditions: in vivo
# [22] = Clearance in Sprague-Dawley rat at 0.5 mg/kg, iv; format: ADME, organism-based; design: dose 0.5 mg/kg, route intravenous; conditions: in vivo
# [23] = molecular target: Serine/threonine-protein kinase mTOR (Rattus norvegicus) (UniProt P42346); assay: Inhibition of HGF induced mTOR activation in rat liver assessed as inhibition of S6RP phosphorylation at 100 mg/kg, ip 6 hrs prior to HGF stimulation by MSD analysis; format: organism-based; design: dose 100 mg/kg
# [24] = molecular target: Serine/threonine-protein kinase mTOR (Rattus norvegicus) (UniProt P42346); assay: Inhibition of HGF induced mTOR activation in rat liver assessed as inhibition of AKT phosphorylation at S473 at 100 mg/kg, ip 6 hrs prior to HGF stimulation by MSD analysis; format: organism-based; design: dose 100 mg/kg
# [25] = molecular target: Serine/threonine-protein kinase mTOR (Rattus norvegicus) (UniProt P42346); assay: Inhibition of HGF induced mTOR activation in rat liver assessed as inhibition of AKT phosphorylation at S473 at 30 mg/kg, ip 6 hrs prior to HGF stimulation by MSD analysis; format: organism-based; design: dose 30 mg/kg; scale not given: the % may be the effect or the level left
# [26] = system: Rattus norvegicus; assay: Inhibition of HGF induced mTOR activation in ip dosed rat liver assessed as inhibition of AKT phosphorylation at S473 administered 6 hrs prior to HGF stimulation by MSD analysis; format: functional, organism-based
# [27] = system: Rattus norvegicus; assay: AUC in rat at 2 mg/kg, po; format: ADME, organism-based, Plasma; design: dose 2 mg/kg, route oral; conditions: in vivo
# [28] = AUC in rat at 50 mg/kg, po; format: ADME, organism-based; design: dose 50 mg/kg, route oral; conditions: plasma
Vd [2] [L/kg],clearance [3] [mL/min/kg],IC50 [4] [nM],bioavailability [5] [%],IC50 [7] [nM],IC50 [9] [µM],IC50 [10] [nM],half-life [12] [min],IC50 [13] [nM],IC50 [14] [nM],AUC [16] [nM],fraction unbound [17],IC50 [20] [µM],SMILES,other results
1.1,31.7,390,6.3,510,0.87,800,43.2,55,27,1680,0.028,,Cc1nc(N)nc(-n2c(Nc3ccn[nH]3)nc3ccccc32)n1,CL [1]: 28 µL/min/mg; microsomal CLint [6]: 52 µL/min/mg; solubility ([8]; buffer): 37 µg/mL; microsomal CLint [11]: 79 µL/min/mg; Activity [15]: Active
,,600,0,4000,8.5,6200,,73,31,,0.016,3.6,Cc1nc(NCC#N)nc(-n2c(Nc3ccn[nH]3)nc3ccccc32)n1,Vd [18]: 1.5 L/kg; AUC [19]: 559 nM; half-life [21]: 27 min; clearance [22]: 41.7 mL/min/kg
0.76,15.5,600,20.7,890,4.5,2200,33.6,100,81,3600,0.008,3.2,CNc1nc(C)nc(-n2c(Nc3cc[nH]n3)nc3ccccc32)n1,"inhibition [23]: 78%; inhibition [24]: 83%; Activity [25]: 71%; inhibition [26]: Dose-dependent effect; solubility ([8]; 0.01 N HCl, read-out: solubility): 156 µg/mL; AUC [27]: 1490 nM; AUC [28]: 2.03 µM·h"
